# Reference: PubChem BioAssay AID2060491 (Molecular Pharmacology Branch, DTP, NCI, 2025)
# Tested on: 857933-349-R-J2-PDC complex spheroids, viability
# Assay: Anticancer human tumor 857933-349-R-J2-PDC patient-derived colon adenocarcinoma cell line growth inhibition [GQUAD]
# Settings: for IC50: curve of first compound; for viability, T/C: stronger effect = lower value
# From the text: DNA G-quadruplex Stabilizer Agents in Combinations in Complex Spheroids
# A high-throughput screen of multi-cell type tumor spheroids was designed to identify active combinations of DNA G-quadruplex stabilizer agents and targeted small molecules. Complex spheroids include a stromal component modeled by human endothelial cells (HUVEC) and fibroblasts modeled by human mesenchymal stem cells (MSCs). The concentration ranges selected for each drug and investigational agent were based upon clinically achievable concentrations if the clinical Cmax of the agent was known.
# Compounds. The drugs and investigational agents: pidnarulex (CX-5461; NSC782164), APTO-253 (NSC789042), BRACO-19 (NSC847499), peposertib (NSC802822), ceralasertib (NSC780249), elimusertib (NSC800525), camonsertib (NSC841442), AZD-1390 (NSC803789), olaparib (NSC753686), talazoparib (NSC767125), ART-558 (NSC835418), sotorasib (NSC818433), MRTX-1133 (NSC836407), SN-38 (NSC673596), topotecan (NSC609699), etoposide (NSC141540), doxorubicin (NSC123127), gemcitabine (NSC613327), 5-fluorouracil (NSC19893), paclitaxel (NSC125973), vemurafenib (NSC761431), panobinostat (NSC761190), R-306465 (JNJ-16241199; NSC773264), adavosertib (NSC754352), TP-3654 (NSC805149), carboplatin (NSC241240), KSQ-4279 (NSC840948), and staurosporine (NSC755774) were obtained from the National Cancer Institute (NCI) Developmental Therapeutics Program Chemical Repository (34). The FDA-approved anticancer drug set is available from the NCI Developmental Therapeutics Program. […] The stock solutions were prepared in dimethyl sulfoxide (DMSO, Sigma-Aldrich, St. Louis, MO, cat. D2650) at 800-fold the tested concentration and stored at -70 degrees C prior to their use. All drugs and investigational agents were tested over a range starting from a high concentration at or near the clinical Cmax and decreasing in half-log increments. If the clinical Cmax for an agent had not been determined, the highest concentration tested was 10 microM.
# 2.3 Cell Culture. All cells were maintained in an incubator at 37 degrees C and 5% CO2 with 95% humidity. The PDC lines were cultured according to standard operating procedures established by the NCI PDMR. All PDCs were thawed and cultured in Matrigel-coated flasks prepared with a working solution of 1X Ham's F-12 nutrient mix, without supplementation (Invitrogen, cat. 11765054), 100 U/mL penicillin-streptomycin (Invitrogen, cat. 15140122), and 2.5% Matrigel (Corning Inc., cat. 354248) for the first three passages. The 857933-349-R-J2-PDC line was cultured in 6C/Colon 1B media, which includes advanced DMEM/F-12 (Thermo Fisher Scientific, cat. 12634028), 10 mM HEPES (Thermo Fisher Scientific, cat. 15630080), 1X GlutaMAX supplement (Thermo Fisher Scientific, cat. 35050061), 0.1 mg/mL primocin (InvivoGen, cat. ant-pm-2), 10% defined fetal bovine serum, heat inactivated (HyClone Laboratories Inc., cat. SH30070.03HI), 50% L-WRN conditioned media (ATCC, cat. CRL-3276), 1.25 mM N-Acetyl-L-cysteine (Sigma-Aldrich, cat. A9165), 10 mM nicotinamide (Sigma-Aldrich, cat. N0636), 1X B-27 supplement (Thermo Fisher Scientific, cat. 17504044), 1X N-2 supplement (Thermo Fisher Scientific, cat. 17502048), 10 microM Y-27632 dihydrochloride (Tocris Bioscience, cat. 1254), and 50 ng/mL human EGF recombinant protein (Thermo Fisher Scientific, cat. PHG0311). The 485176-168-R4-J1-PDC line was cultured in Panc media, which includes all 6C/Colon 1B media components plus 100 ng/mL human FGF-10 (Thermo Fisher Scientific, cat. 100-26), 500 nM SB-431542 (Selleckchem, cat. S1067), and gastrin (Tocris, cat. 3006).
# […]
# [1] = second compound 0.0316 µM, first compound 0.0316 µM
# [2] = second compound 0.0316 µM, first compound 0.1 µM
# [3] = second compound 0.0316 µM, first compound 0.316 µM
# [4] = second compound 0.0316 µM, first compound 1 µM
# [5] = second compound 0.0316 µM, first compound 3.16 µM
# [6] = second compound 0.0316 µM, first compound 10 µM
# [7] = second compound 0.1 µM, first compound 0.0316 µM
# [8] = second compound 0.1 µM, first compound 0.1 µM
# [9] = second compound 0.1 µM, first compound 0.316 µM
# [10] = second compound 0.1 µM, first compound 1 µM
# [11] = second compound 0.1 µM, first compound 3.16 µM
# [12] = second compound 0.1 µM, first compound 10 µM
# [13] = second compound 0.316 µM, first compound 0.0316 µM
# [14] = second compound 0.316 µM, first compound 0.1 µM
# [15] = second compound 0.316 µM, first compound 0.316 µM
# [16] = second compound 0.316 µM, first compound 1 µM
# [17] = second compound 0.316 µM, first compound 3.16 µM
# [18] = second compound 0.316 µM, first compound 10 µM
# [19] = second compound 1 µM, first compound 0.0316 µM
# [20] = second compound 1 µM, first compound 0.1 µM
# [21] = second compound 1 µM, first compound 0.316 µM
# [22] = second compound 1 µM, first compound 1 µM
# [23] = second compound 1 µM, first compound 3.16 µM
# [24] = second compound 1 µM, first compound 10 µM
# [25] = second compound 3.16 µM, first compound 0.0316 µM
# [26] = second compound 3.16 µM, first compound 0.1 µM
# [27] = second compound 3.16 µM, first compound 0.316 µM
# [28] = second compound 3.16 µM, first compound 1 µM
# [29] = second compound 3.16 µM, first compound 3.16 µM
# [30] = second compound 3.16 µM, first compound 10 µM
# [31] = second compound 10 µM, first compound 0.0316 µM
# [32] = second compound 10 µM, first compound 0.1 µM
# [33] = second compound 10 µM, first compound 0.316 µM
# [34] = second compound 10 µM, first compound 1 µM
# [35] = second compound 10 µM, first compound 3.16 µM
# [36] = second compound 10 µM, first compound 10 µM
# 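Further: spheroids exposed to compounds for one week before readout.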
# 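Wherever viability, T/C is given: percent viability relative to vehicle DMSO wells taken as 100%.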
smiles,measurement,setting,value
Cc1cccc(N(C)C(=O)C2C(O)CCN2c2nc(C)cc(C(F)(F)F)c2C#N)c1 (centres undefined) + CN(C)c1ccc(Nc2c3ccc(NC(=O)CCN4CCCC4)cc3nc3cc(NC(=O)CCN4CCCC4)ccc23)cc1,IC50,second compound 0.0316 µM,> 10000 nM
same,IC50,second compound 0.1 µM,> 10000 nM
same,IC50,second compound 0.316 µM,> 10000 nM
same,IC50,second compound 1 µM,> 10000 nM
same,IC50,second compound 3.16 µM,> 10000 nM
same,IC50,second compound 10 µM,> 10000 nM
same,"viability, T/C",[1],106%
same,"viability, T/C",[2],106%
same,"viability, T/C",[3],101%
same,"viability, T/C",[4],105%
same,"viability, T/C",[5],103%
same,"viability, T/C",[6],99.3%
same,"viability, T/C",[7],101%
same,"viability, T/C",[8],107%
same,"viability, T/C",[9],100%
same,"viability, T/C",[10],102%
same,"viability, T/C",[11],103%
same,"viability, T/C",[12],99.2%
same,"viability, T/C",[13],104%
same,"viability, T/C",[14],103%
same,"viability, T/C",[15],98.5%
same,"viability, T/C",[16],102%
same,"viability, T/C",[17],108%
same,"viability, T/C",[18],98%
same,"viability, T/C",[19],104%
same,"viability, T/C",[20],90.3%
same,"viability, T/C",[21],94.3%
same,"viability, T/C",[22],93.5%
same,"viability, T/C",[23],96.7%
same,"viability, T/C",[24],88.2%
same,"viability, T/C",[25],89.9%
same,"viability, T/C",[26],78.1%
same,"viability, T/C",[27],83.8%
same,"viability, T/C",[28],78.6%
same,"viability, T/C",[29],87%
same,"viability, T/C",[30],74.2%
same,"viability, T/C",[31],68.8%
same,"viability, T/C",[32],71.7%
same,"viability, T/C",[33],76.5%
same,"viability, T/C",[34],74.7%
same,"viability, T/C",[35],69.8%
same,"viability, T/C",[36],63.5%
O=C(NO)c1cnc(N2CCN(S(=O)(=O)c3ccc4ccccc4c3)CC2)nc1 + Cc1cnc(CNC(=O)c2c(=O)c3ccc(N4CCCN(C)CC4)nc3n3c2sc2ccccc23)cn1,IC50,second compound 0.0316 µM,538 nM
same,IC50,second compound 0.1 µM,372 nM
same,IC50,second compound 0.316 µM,< 31.6 nM
same,IC50,second compound 1 µM,< 31.6 nM
same,IC50,second compound 3.16 µM,< 31.6 nM
same,IC50,second compound 10 µM,< 31.6 nM
same,"viability, T/C",[1],95.5%
same,"viability, T/C",[2],79.8%
same,"viability, T/C",[3],79.5%
same,"viability, T/C",[4],15.9%
same,"viability, T/C",[5],0.04%
same,"viability, T/C",[6],0.06%
same,"viability, T/C",[7],65%
same,"viability, T/C",[8],69.3%
same,"viability, T/C",[9],56%
same,"viability, T/C",[10],11.7%
same,"viability, T/C",[11],0.05%
same,"viability, T/C",[12],0.08%
same,"viability, T/C",[13],19.9%
same,"viability, T/C",[14],24.9%
same,"viability, T/C",[15],24.2%
same,"viability, T/C",[16],1.65%
same,"viability, T/C",[17],0.03%
same,"viability, T/C",[18],0.07%
same,"viability, T/C",[19],4.31%
same,"viability, T/C",[20],2.8%
same,"viability, T/C",[21],1.46%
same,"viability, T/C",[22],0.09%
same,"viability, T/C",[23],0.04%
same,"viability, T/C",[24],0.07%
same,"viability, T/C",[25],1.32%
same,"viability, T/C",[26],0.92%
same,"viability, T/C",[27],0.23%
same,"viability, T/C",[28],0.12%
same,"viability, T/C",[29],0.08%
same,"viability, T/C",[30],0.09%
same,"viability, T/C",[31],0.16%
same,"viability, T/C",[32],0.2%
same,"viability, T/C",[33],0.2%
same,"viability, T/C",[34],0.14%
same,"viability, T/C",[35],0.15%
same,"viability, T/C",[36],0.18%
